Experimental data reported in article PMC11044217 (ACS Omega, 2024).

Columns and labels:
[1] = target: hBChE (Homo sapiens, UniProt P06276); assay: hBChE inhibition, Ellman's colorimetric method; type: biochemical; settings: IC50 ± SEM hBChE, n = 3
[2] = target: hAChE (Homo sapiens, UniProt P22303); assay: hAChE inhibition, Ellman's colorimetric method; type: biochemical
[3] = DPPH radical scavenging assay; settings: in methanol
[4] = target: PAS of hAChE (Homo sapiens, UniProt P22303); assay: Propidium iodide displacement assay; type: binding; settings: for inhibition at 10 µM: read-out: (%) PAS-AChE propidium iodide displacement (% inhibition) at 10 μM; for inhibition at 50 µM: read-out: (%) PAS-AChE propidium iodide displacement (% inhibition) at 50 μM
[5] = target: hBACE-1 (Homo sapiens, UniProt P56817); assay: BACE-1 inhibition, FRET-based fluorometric assay; type: biochemical
[6] = test system: catalase (CAT); assay: Ex vivo catalase; type: in vivo, Swiss albino mice; settings: hippocampal brain homogenate
[7] = target: T1, AChE (Mus musculus, UniProt P21836); assay: Ex vivo AChE level in hippocampal brain homogenate; set-up: species or system Swiss albino mice; settings: in comparison with scopolamine-treated group
T1 sequence (P21836 32-614): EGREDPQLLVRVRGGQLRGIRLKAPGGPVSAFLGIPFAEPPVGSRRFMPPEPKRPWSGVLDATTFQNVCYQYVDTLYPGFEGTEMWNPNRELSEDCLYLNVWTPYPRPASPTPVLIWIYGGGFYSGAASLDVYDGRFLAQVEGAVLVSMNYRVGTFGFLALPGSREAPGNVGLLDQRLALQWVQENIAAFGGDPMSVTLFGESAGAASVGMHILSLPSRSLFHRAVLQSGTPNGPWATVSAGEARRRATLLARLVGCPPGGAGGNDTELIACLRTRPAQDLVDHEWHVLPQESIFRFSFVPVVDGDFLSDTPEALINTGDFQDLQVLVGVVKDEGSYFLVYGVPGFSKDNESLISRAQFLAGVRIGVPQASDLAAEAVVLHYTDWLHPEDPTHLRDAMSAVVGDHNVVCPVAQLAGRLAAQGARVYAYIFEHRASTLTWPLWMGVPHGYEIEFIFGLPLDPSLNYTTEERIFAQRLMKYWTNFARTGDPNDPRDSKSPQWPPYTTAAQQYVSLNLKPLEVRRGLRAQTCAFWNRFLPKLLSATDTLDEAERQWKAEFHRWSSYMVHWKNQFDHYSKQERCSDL

[8] = in vitro; settings: pig, PAMPA, pH 7.4
[9] = test system: Swiss albino mice; assay: Scopolamine-induced Y-maze test; type: in vivo; settings: scopolamine-induced cognitive dysfunction mice model, p < 0.001

Sequence of hAChE (P22303 32-617 isoform P22303-2 limits assumed): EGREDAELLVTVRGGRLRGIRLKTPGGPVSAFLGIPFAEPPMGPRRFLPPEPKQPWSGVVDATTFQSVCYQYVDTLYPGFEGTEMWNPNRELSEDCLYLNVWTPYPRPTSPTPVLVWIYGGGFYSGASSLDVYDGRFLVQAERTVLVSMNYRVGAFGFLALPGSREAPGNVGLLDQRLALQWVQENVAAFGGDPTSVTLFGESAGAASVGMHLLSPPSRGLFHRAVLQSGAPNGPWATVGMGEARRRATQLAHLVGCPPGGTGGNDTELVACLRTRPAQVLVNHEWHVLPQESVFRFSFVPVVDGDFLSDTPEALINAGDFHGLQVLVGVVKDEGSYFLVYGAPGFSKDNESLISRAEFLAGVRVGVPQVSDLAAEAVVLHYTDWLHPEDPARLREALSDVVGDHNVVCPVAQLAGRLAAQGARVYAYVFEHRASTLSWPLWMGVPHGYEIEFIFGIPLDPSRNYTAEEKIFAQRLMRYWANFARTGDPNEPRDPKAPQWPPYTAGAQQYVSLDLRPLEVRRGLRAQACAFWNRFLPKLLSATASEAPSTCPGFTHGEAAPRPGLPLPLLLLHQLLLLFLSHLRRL
Sequence of hBACE-1 (P56817 46-501): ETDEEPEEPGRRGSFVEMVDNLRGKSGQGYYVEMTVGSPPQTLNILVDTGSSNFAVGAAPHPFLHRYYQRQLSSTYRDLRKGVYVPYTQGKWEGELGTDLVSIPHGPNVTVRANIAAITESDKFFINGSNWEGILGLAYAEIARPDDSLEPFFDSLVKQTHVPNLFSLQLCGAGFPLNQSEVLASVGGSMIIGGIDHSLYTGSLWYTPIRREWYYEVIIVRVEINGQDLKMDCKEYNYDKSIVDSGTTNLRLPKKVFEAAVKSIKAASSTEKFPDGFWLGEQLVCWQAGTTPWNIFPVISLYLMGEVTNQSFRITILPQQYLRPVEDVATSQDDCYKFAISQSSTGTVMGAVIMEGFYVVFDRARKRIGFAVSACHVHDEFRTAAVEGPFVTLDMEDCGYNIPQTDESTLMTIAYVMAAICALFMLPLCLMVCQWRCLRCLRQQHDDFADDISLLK
Sequence of PAS of hAChE (P22303 32-614): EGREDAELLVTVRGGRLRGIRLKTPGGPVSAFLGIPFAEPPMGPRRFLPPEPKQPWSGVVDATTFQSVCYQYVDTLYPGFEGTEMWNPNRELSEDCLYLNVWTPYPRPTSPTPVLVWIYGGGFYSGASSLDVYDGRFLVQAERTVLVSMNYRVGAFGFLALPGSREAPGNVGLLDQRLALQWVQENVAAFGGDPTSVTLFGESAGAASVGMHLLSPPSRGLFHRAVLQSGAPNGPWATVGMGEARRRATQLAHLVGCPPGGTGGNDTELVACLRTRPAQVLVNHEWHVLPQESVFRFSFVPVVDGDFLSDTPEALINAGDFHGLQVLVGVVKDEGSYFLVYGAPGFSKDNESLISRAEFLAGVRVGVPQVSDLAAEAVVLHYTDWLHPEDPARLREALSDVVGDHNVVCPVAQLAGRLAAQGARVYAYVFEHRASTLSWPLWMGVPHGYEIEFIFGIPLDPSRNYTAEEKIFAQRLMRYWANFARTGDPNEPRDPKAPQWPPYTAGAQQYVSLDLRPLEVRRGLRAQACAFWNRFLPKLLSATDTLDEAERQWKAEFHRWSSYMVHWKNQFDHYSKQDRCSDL
Sequence of hBChE (P06276 29-602): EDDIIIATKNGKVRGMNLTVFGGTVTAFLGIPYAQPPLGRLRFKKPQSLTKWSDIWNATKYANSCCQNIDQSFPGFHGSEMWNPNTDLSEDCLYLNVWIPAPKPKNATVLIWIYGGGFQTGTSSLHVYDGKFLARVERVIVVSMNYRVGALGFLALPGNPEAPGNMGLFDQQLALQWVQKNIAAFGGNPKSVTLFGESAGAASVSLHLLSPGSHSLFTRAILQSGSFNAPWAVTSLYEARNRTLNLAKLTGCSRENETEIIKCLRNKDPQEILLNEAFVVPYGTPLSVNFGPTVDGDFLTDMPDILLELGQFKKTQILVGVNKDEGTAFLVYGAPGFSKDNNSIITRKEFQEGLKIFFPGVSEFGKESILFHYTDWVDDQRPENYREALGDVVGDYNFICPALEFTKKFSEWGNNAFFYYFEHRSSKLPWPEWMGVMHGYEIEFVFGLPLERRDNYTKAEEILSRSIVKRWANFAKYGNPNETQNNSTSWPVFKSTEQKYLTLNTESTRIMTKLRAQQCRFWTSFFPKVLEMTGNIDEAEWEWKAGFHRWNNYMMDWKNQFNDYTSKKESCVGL

| SMILES | IC50 [1] | IC50 [2] | % RSA of DPPH ± SEM at 25 μM [3] | inhibition at 10 µM [4] | inhibition at 50 µM [4] | IC50 [5] | catalase (CAT) level in brain homogenate [6] | AChE level in hippocampal brain homogenate [7] | Papp [8] | learning and memory [9] |
| --- | --- | --- | --- | --- | --- | --- | --- | --- | --- | --- |
| c1ccc(-c2nnc(CN3CCN(c4ccccc4)CC3)o2)cc1 [5AA, 2-Phenyl-5-((4-phenylpiperazin-1-yl)methyl)-1,3,4-oxadiazole] | > 10 µM | 1.83 ± 0.076 µM | – | – | – | – | – | – | – | – |
| c1ccc(CN2CCN(Cc3nnc(-c4ccccc4)o3)CC2)cc1 [5AB, 2-((4-Benzylpiperazin-1-yl)methyl)-5-phenyl-1,3,4-oxadiazole] | > 10 µM | 1.79 ± 0.032 µM | 42.24% | 18.4 ± 1.07% | 29.5 ± 1.33% | > 10 µM | – | – | – | – |
| c1ccc(-c2nnc(CN3CCN(C(c4ccccc4)c4ccccc4)CC3)o2)cc1 [5AC, 2-((4-Benzhydrylpiperazin-1-yl)methyl)-5-phenyl-1,3,4-oxadiazole] | – | 3.15 ± 0.0202 µM | – | – | – | 5.62 ± 0.073 µM | – | – | – | – |
| c1ccc(-c2nnc(CN3CCN(c4ccccn4)CC3)o2)cc1 [5AD, 2-Phenyl-5-((4-(pyridin-2-yl)piperazin-1-yl)methyl)-1,3,4-oxadiazole] | ≥ 10 µM | 0.103 ± 0.0172 µM | 44.35% | – | – | 1.34 ± 0.078 µM | increase in catalase | decrease in AChE | 6.5 ± 0.072 ×10⁻⁶ cm/s | significant improvement in learning and memory |
| O=[N+]([O-])c1ccc(N2CCN(Cc3nnc(-c4ccccc4)o3)CC2)cc1 [5AF, 2-((4-(4-Nitrophenyl)piperazin-1-yl)methyl)-5-phenyl-1,3,4-oxadiazole] | > 10 µM | 1.87 ± 0.0441 µM | – | – | – | 6.242 ± 0.03 µM | – | – | – | – |
| Cc1ccc(N2CCN(Cc3nnc(-c4ccccc4)o3)CC2)cc1 [5AG, 2-Phenyl-5-((4-(p-tolyl)piperazin-1-yl)methyl)-1,3,4-oxadiazole] | > 10 µM | 2.59 ± 0.0169 µM | 36.30 ± 2.5% | – | – | 3.81 ± 0.039 µM | – | – | – | – |
| COc1ccc(N2CCN(Cc3nnc(-c4ccccc4)o3)CC2)cc1 [5AH, 2-((4-(4-Methoxyphenyl)piperazin-1-yl)methyl)-5-phenyl-1,3,4-oxadiazole] | > 10 µM | 1.48 ± 0.0719 µM | 38.78 ± 2.9% | 19.2 ± 1.81% | 26.7 ± 1.34% | 1.685 ± 0.012 µM | – | – | 5.8 ± 0.175 ×10⁻⁶ cm/s | – |
| Cc1ccc(CN2CCN(Cc3nnc(-c4ccccc4)o3)CC2)cc1 [5AI, 2-((4-(4-Methylbenzyl)piperazin-1-yl)methyl)-5-phenyl-1,3,4-oxadiazole] | – | 1.797 ± 0.0081 µM | 36.24 ± 2.6% | 17.7 ± 1.26% | – | 0.392 ± 0.021 µM | – | – | – | – |
| O=C1O[C@H]([C@@H](O)CO)C(O)=C1O [Ascorbic acid, reference compound] | – | – | 59.65 ± 2.3% | – | – | – | – | – | – | – |
